What was measured:
[1] = molecular target: T1, mP2X7R (Mus musculus, UniProt Q9Z1M0); test: Calcium influx assay in HEK-mP2X7 cells; assay type: cell-based; conditions: HEK cells expressing mP2X7R, BzATP 100 μM; mean ± standard deviation, n >3
T1 construct: expressed in transfected cells; host or cells: HEK293T, G418-selected; gift from Dr Leanne Stokes and Prof; Jim Wiley
T1 sequence (Q9Z1M0 1-595): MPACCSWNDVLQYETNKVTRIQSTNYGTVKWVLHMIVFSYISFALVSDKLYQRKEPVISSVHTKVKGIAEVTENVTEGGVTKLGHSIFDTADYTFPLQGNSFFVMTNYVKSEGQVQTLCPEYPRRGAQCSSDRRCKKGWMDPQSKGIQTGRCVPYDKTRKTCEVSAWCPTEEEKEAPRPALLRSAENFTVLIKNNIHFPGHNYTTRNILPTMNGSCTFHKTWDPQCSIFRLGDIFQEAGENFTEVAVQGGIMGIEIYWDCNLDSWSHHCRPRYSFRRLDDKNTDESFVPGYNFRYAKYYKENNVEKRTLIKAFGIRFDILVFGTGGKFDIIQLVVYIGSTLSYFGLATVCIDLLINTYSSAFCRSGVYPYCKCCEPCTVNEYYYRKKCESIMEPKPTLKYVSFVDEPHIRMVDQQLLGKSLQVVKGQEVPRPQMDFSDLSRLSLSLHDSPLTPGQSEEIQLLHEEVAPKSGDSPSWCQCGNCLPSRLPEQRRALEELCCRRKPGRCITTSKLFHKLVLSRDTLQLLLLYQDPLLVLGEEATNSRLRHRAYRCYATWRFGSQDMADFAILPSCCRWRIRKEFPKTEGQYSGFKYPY
Experimental: HEK293T cells transfected with cDNA for the human (HEK-hP2X7) or mouse P2X7 (HEK-mP2X7) receptor (a kind gift from Dr […] Stokes and Prof. Jim Wiley) were cultured in DMEM/F12 with 10% FBS and 500 μg/mL G418 (all from Invitrogen). […] HEK-hP2X7 or HEK-mP2X7 cells were harvested using trypsin (0.05%) with EDTA (0.03%). Cells were loaded with Fluo-4 AM (1 μM) in HBSS buffer at 37° C. for 30 min, inverting every 5 mins. […] Cells were resuspended a final time in assay buffer and seeded into black-walled 96 well clear-bottom plates at a density of 5×10^4 cells/well. […] Fluorescence was then monitored every 5 s for 5 min total monitoring. […] Data were normalized to the peak response seen with BzATP alone and the basal response seen due to injection of vehicle (see FIG. 3).

[2] = test system: P-gp (human MDR1); test: MDCK P-glycoprotein bidirectional permeability assay; assay type: in vitro ADME, canine; conditions: dog, 30 minute, 37° C.; for Papp A→B at 30 min, 10 μM: apical to basolateral; for Papp B→A at 30 min, 10 μM: basolateral to apical
Experimental: The transcellular permeability of test compounds and the influence of Pgp-mediated efflux on drug permeability was assessed using hMDR1-MDCK monolayers grown on filter supports. All compounds were dissolved in 100% DMSO to provide 10 mM stock solutions from which donor (dose) solutions were prepared in DMEM to give a final drug concentration of 10 μM. All dose solutions contained 10 μM propranolol as an internal standard. hMDR1-MDCK seeded filters were exposed to a fixed volume of the donor solution containing the compound of interest and its ability to traverse the monolayer and appear in the receiver compartment measured over a 30 minute period at 37° C. Bidirectional permeability measurements were derived by examining the transfer of compound in both the apical to basolateral compartment, and vice versa. Sample analysis was conducted using LC-MS/MS with the detection settings optimised for each test compound. Following analysis of the samples the apparent permeability coefficient (Papp, cm/sec) for the discovery compounds is determined using the following relationship: [formula] • VR=Volume of the receiver compartment • A=Surface area of the filter • CD=Drug concentration in the donor concentration • Δt=incubation time • ΔCR=the amount of drug detected in the receiver compartment The efflux ratio can be determined from these values by calculating the ratio of the Papp values derived in the B-A direction and A-B direction (i.e. Papp B-A/Papp A-B). […] P-gp) influencing transport.

[3] = test system: secreted IL-1β in THP-1 monocytic cells; test: IL-1β dose-response testing in THP-1 monocytic cell line; assay type: cell-based; conditions: Homo sapiens; THP-1 treated with interferon-γ and lipopolysaccharide 3 hours, compound 1-1000 nM, ATP stimulation; read-out: LogEC50, secreted IL-1β (converted)
Experimental: Supernatant was collected to measure the level of secreted IL-1β.
Cells were plated in 48-well Corning cell-bind plates at 2×10^5 cells/well, and treated with recombinant human interferon-γ (10 ng/mL) and lipopolysaccharide (25 ng/mL) for 3 hours. […] Supernatant was collected to measure the level of secreted IL-1ß.
(§1) Changes in secreted and intracellular levels of IL-1β were measured by ELISA (RnD systems). Samples were diluted 1 in 2 in commercial diluent, assayed according to manufacturer's instructions and detected at 450/570 nm.

[4] = test system: ATP-induced IL-1β secretion in PBMCs; test: IL-1β ELISA in patient-derived PBMCs/monocytes (STEMI and controls); assay type: cell-based, human; conditions: pre-incubated with 1 μmol/L compound
From the text: The role of inflammation in cardiovascular disease processes was explored. Patients that were admitted to the Royal North Shore Hospital, Sydney, Australia for clinically indicated cardiac catheterisation were consented for the study. These patients were subdivided according to their clinical presentation: • 1. Patients presenting with STEMI, characterised by recent-onset chest pain, ECG changes and/or raised cardiac enzymes. • 2. Age and sex-matched control patients with no evidence of coronary stenosis on angiography.
Patients were excluded from the study if they were taking anti-inflammatory medications, or if they had clinical or biochemical evidence of active infection or inflammation.
20 mL of blood was collected from the arterial sheath into an EDTA-coated tube. Samples were immediately diluted 1:1 in phosphate buffered saline (PBS) and layered on top of Ficoll-Paque for gradient separation. Samples were centrifuged at […] for 15 minutes. […]
as §1
Peripheral blood mononuclear cells (PBMCs) were collected from 19 STEMI patients at the time of infarct, and 3 healthy controls. […] IL-1β levels were measured by ELISA.

Compound | IC50 [1] | Papp A→B at 30 min, 10 μM [2] | Papp B→A at 30 min, 10 μM [2] | EC50 [3] | secreted IL-1β after ATP stimulation, STEMI PBMCs ([4]; STEMI patients' PBMCs) | secreted IL-1β after ATP stimulation, control PBMCs ([4]; healthy controls' PBMCs)
COc1ccc(Cl)c(C(=O)NCC23CC4CC(CC(C4)C2)C3)c1 [Compound 31, reference compound] | 1900 ± 905 nM | 40.9 ×10⁻⁶ cm/s | 23.6 ×10⁻⁶ cm/s |  |  | 
COc1ccc(Cl)c(C(=O)NCC23CC4CC(CC(F)(C4)C2)C3)c1 [Compound 3, 2-Chloro-N-((3-fluoroadamantan-1-yl)methyl)-5-methoxybenzamide] | 1510 ± 339 nM | 28.1 ×10⁻⁶ cm/s | 34.3 ×10⁻⁶ cm/s |  |  | 
COc1ccc(Cl)c(C(=O)NCC23CC4(F)CC(F)(CC(F)(C4)C2)C3)c1 [Compound 1, 2-Chloro-N-((3,5,7-trifluoroadamantan-1-yl)methyl)-5-methoxybenzamide] | 158 ± 44 nM | 30.3 ×10⁻⁶ cm/s | 44.2 ×10⁻⁶ cm/s | 8.53 nM | 13.9±2.4 | 7.5±2.8
COc1ccc(Cl)c(C(=O)NCC23CC4CC(F)(CC(F)(C4)C2)C3)c1 [Compound 2, 2-Chloro-N-((3,5-difluoroadamantan-1-yl)methyl)-5-methoxybenzamide] | 575 ± 108 nM | 40 ×10⁻⁶ cm/s | 54.8 ×10⁻⁶ cm/s |  |  | 
